Legend:
PC3 cells = assay: NAMPT Cell Proliferation Assay; format: cell-based; conditions: Homo sapiens, PC-3, 120 h, 5 days incubation, cell viability by Cell Titer Glo
In short: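 PC3 cells were plated at 500 cells/well in RPMI with 10% heat-inactivated FBS, left to attach overnight, then given compounds in 10-fold dilutions from 10 μM to 1×10^−5 μM. After 5 days at 37° C and 5% CO2, viability was read by luminescence and IC50s came from sigmoidal fits of percent inhibition.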

NAMPT = NAMPT (Homo sapiens, UniProt P43490); assay: TR-FRET Binding Assay of NAMPT with PRPP; conditions: with 200 μM PRPP and 2.5 mM ATP; 2 nM NAMPT, 2 nM probe, 16 hours equilibration
In short: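 TR-FRET probe-displacement binding with 2 nM NAMPT, 2 nM probe and 1 nM Tb-anti-His antibody, run in the presence of 200 μM PRPP and 2.5 mM ATP at 2% DMSO. Equilibrated 16 hours before reading so test compounds could undergo enzymatic modification.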

[1] = target: NAMPT (human, recombinant, C-terminally His-tagged) (Homo sapiens, UniProt P43490); assay: Time-Resolved Fluorescence Resonance Energy Transfer (TR-FRET) Binding Assay of NAMPT; conditions: without substrates; 6.8 nM NAMPT, 200 nM probe, 3 hours equilibration
In short: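 11-pt half-log compound series; final 6.8 nM NAMPT, 200 nM OG488 nicotinamide-competitive probe, 1 nM Tb-anti-His Ab, 2% DMSO, HEPES pH 7.5/NaCl/MgCl2/DTT/glycerol buffer. 3 h RT equilibration. Em520/Em495 ratio (Ex 337 nm), control-normalized, 4-parameter fit → IC50.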

NAMPT, sequence (P43490 whole entry): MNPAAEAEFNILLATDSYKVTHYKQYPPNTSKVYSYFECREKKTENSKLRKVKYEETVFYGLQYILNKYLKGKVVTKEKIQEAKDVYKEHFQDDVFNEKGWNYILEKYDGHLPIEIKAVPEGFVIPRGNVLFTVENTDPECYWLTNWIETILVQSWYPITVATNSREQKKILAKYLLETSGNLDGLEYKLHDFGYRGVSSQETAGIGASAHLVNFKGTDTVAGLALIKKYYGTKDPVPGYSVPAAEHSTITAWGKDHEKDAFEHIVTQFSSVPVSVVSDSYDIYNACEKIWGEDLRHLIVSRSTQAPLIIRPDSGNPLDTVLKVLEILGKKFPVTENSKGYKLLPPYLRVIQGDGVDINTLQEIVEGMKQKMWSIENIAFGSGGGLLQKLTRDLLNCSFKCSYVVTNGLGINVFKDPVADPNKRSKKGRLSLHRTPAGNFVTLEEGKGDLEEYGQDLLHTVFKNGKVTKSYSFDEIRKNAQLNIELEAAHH
NAMPT (human, recombinant, C-terminally His-tagged), sequence (P43490 whole entry): as above

Row | SMILES | IC50 (PC3 cells) [nM] | IC50 (NAMPT) [nM] | IC50 [1] [nM]
1 | CC1(C(=O)N2CC(c3ccc(C(=O)NCc4ccn5ccnc5c4)cc3)C2)CCCCC1 [Example 665, N-(imidazo[1,2-a]pyridin-7-ylmethyl)-4-{1-[(1-methylcyclohexyl)carbonyl]azetidin-3-yl}benzamide] | 7.28 | 0.357 | 123
2 | CC(C)C(C)C(=O)N1CC(c2ccc(C(=O)NCc3ccn4ccnc4c3)cc2)C1 (stereo not drawn) [Example 666, 4-[1-(2,3-dimethylbutanoyl)azetidin-3-yl]-N-(imidazo[1,2-a]pyridin-7-ylmethyl)benzamide] | 5.18 | 0.855 | 193
3 | Cc1cccc(C(=O)N2CC(c3ccc(C(=O)NCc4ccn5ccnc5c4)cc3)C2)c1 [Example 667, N-(imidazo[1,2-a]pyridin-7-ylmethyl)-4-[1-(3-methylbenzoyl)azetidin-3-yl]benzamide] | 45.8 | 0.798 | 226
4 | O=C(NCc1ccn2ccnc2c1)c1ccc(C2CN(C(=O)c3ccsc3)C2)cc1 [Example 668, N-(imidazo[1,2-a]pyridin-7-ylmethyl)-4-[1-(thiophen-3-ylcarbonyl)azetidin-3-yl]benzamide] | 80.3 | 1.1 | 263
5 | O=C(NCc1ccn2ccnc2c1)c1ccc(C2CN(C(=O)c3cccc(OC(F)(F)F)c3)C2)cc1 [Example 669, N-(imidazo[1,2-a]pyridin-7-ylmethyl)-4-{1-[3-(trifluoromethoxy)benzoyl]azetidin-3-yl}benzamide] | 686 | 0.807 | 407
6 | O=C(NCc1ccn2ccnc2c1)c1ccc(C2CN(C(=O)c3cccc(C(F)(F)F)c3)C2)cc1 [Example 671, N-(imidazo[1,2-a]pyridin-7-ylmethyl)-4-{1-[3-(trifluoromethyl)benzoyl]azetidin-3-yl}benzamide] | 684 | 1.06 | 611
7 | CC(C)S(=O)(=O)N1CCC(c2ccc(C(=O)NCc3ccn4ccnc4c3)cc2)C1 (stereo not drawn) [Example 672, N-(imidazo[1,2-a]pyridin-7-ylmethyl)-4-[1-(propan-2-ylsulfonyl)pyrrolidin-3-yl]benzamide] | 80 | 0.504 | 313
8 | O=C(NCc1ccc2ncnn2c1)c1ccc(-c2cnn(CC3COCCO3)c2)s1 (stereo not drawn) [Example 676, 5-[1-(1,4-dioxan-2-ylmethyl)-1H-pyrazol-4-yl]-N-([1,2,4]triazolo[1,5-a]pyridin-6-ylmethyl)thiophene-2-carboxamide] | 78.7 | 6.98 | 126
9 | O=C(NCc1ccn2ccnc2c1)c1ccc(C2CCN(C(=O)c3ccccc3F)CC2)s1 [Example 677, 5-[1-(2-fluorobenzoyl)piperidin-4-yl]-N-(imidazo[1,2-a]pyridin-7-ylmethyl)thiophene-2-carboxamide] | 0.613 | 0.796 | 1.77
10 | CC(C)(C)OC(=O)N1CCC(c2ccc(C(=O)NCc3cn4ccnc4cn3)cc2)CC1 [Example 678, tert-butyl 4-{4-[(imidazo[1,2-a]pyrazin-6-ylmethyl)carbamoyl]phenyl}piperidine-1-carboxylate] | 15.1 | 0.23 | 41.2
11 | O=C(CC1CCCC1)Nc1ccc(C(=O)NCc2cn3ccnc3cn2)cc1 [Example 679, 4-[(cyclopentylacetyl)amino]-N-(imidazo[1,2-a]pyrazin-6-ylmethyl)benzamide] | 10.9 | 1.74 | 22.8
12 | CC(C)(C)OC(=O)N1CCC(c2ccc(NC(=O)NCc3cn4ccnc4cn3)cc2)CC1 [Example 680, tert-butyl 4-(4-{[(imidazo[1,2-a]pyrazin-6-ylmethyl)carbamoyl]amino}phenyl)piperidine-1-carboxylate] | 629 | 2.38 | 37.1
13 | O=C(CC1CCCC1)Nc1ccc(NC(=O)NCc2cn3ccnc3cn2)cc1 [Example 681, 2-cyclopentyl-N-(4-{[(imidazo[1,2-a]pyrazin-6-ylmethyl)carbamoyl]amino}phenyl)acetamide] | 145 | 2 | 27.6
14 | O=C(NCc1ccn2ccnc2c1)c1ccc(C2CCN(S(=O)(=O)c3ccccc3)CC2)cc1 [Example 682, N-(imidazo[1,2-a]pyridin-7-ylmethyl)-4-[1-(phenylsulfonyl)piperidin-4-yl]benzamide] | 771 | 1.58 | 607
15 | CC(C)S(=O)(=O)N1CCC(c2ccc(C(=O)NCc3ccn4ccnc4c3)cc2)CC1 [Example 683, N-(imidazo[1,2-a]pyridin-7-ylmethyl)-4-[1-(propan-2-ylsulfonyl)piperidin-4-yl]benzamide] | 36.1 | 1.19 | 154
16 | O=C(NCc1ccn2ccnc2c1)c1ccc(C2CCN(S(=O)(=O)C3CC3)CC2)cc1 [Example 684, 4-[1-(cyclopropylsulfonyl)piperidin-4-yl]-N-(imidazo[1,2-a]pyridin-7-ylmethyl)benzamide] | 320 | 1.34 | 481
17 | CC(C)C[C@@H](NC(=O)C1CC1)c1ccc(C(=O)NCc2ccn3ccnc3c2)s1 [Example 685, 5-{(1R)-1-[(cyclopropylcarbonyl)amino]-3-methylbutyl}-N-(imidazo[1,2-a]pyridin-7-ylmethyl)thiophene-2-carboxamide] | 74 | 1.36 | 1250
18 | CC(C)C[C@@H](NC(=O)CC1CCOC1)c1ccc(C(=O)NCc2ccn3ccnc3c2)s1 (stereo partly drawn) [Example 686, N-(imidazo[1,2-a]pyridin-7-ylmethyl)-5-{(1R)-3-methyl-1-[(tetrahydrofuran-3-ylacetyl)amino]butyl}thiophene-2-carboxamide] | 77.2 | 1.3 | 959
19 | CC(C)C[C@H](NC(=O)C1CC1)c1ccc(C(=O)NCc2ccn3ccnc3c2)s1 [Example 687, 5-{(1S)-1-[(cyclopropylcarbonyl)amino]-3-methylbutyl}-N-(imidazo[1,2-a]pyridin-7-ylmethyl)thiophene-2-carboxamide] | 2.19 | 1.16 | 97.3

The remaining lines, values ahead:

Row | IC50 (PC3 cells) [nM] | IC50 (NAMPT) [nM] | IC50 [1] [nM] | SMILES
20 | 71.5 | 0.733 | 214 | O=C(NCc1ccn2ccnc2c1)c1ccc(C2CN(C(=O)c3nccs3)C2)cc1 [Example 664, N-(imidazo[1,2-a]pyridin-7-ylmethyl)-4-[1-(1,3-thiazol-2-ylcarbonyl)azetidin-3-yl]benzamide]
21 | 9.92 | 0.545 | 62 | Cc1ccsc1C(=O)N1CC(c2ccc(C(=O)NCc3ccn4ccnc4c3)cc2)C1 [Example 670, N-(imidazo[1,2-a]pyridin-7-ylmethyl)-4-{1-[(3-methylthiophen-2-yl)carbonyl]azetidin-3-yl}benzamide]
22 | 122 | 0.697 | 452 | COCCn1cc(-c2ccc(NC(=O)NCc3ccn4ccnc4c3)cc2)cn1 [Example 673, 1-(imidazo[1,2-a]pyridin-7-ylmethyl)-3-{4-[1-(2-methoxyethyl)-1H-pyrazol-4-yl]phenyl}urea]
23 | 32.4 | 0.535 | 297 | O=C(NCc1ccn2ccnc2c1)Nc1ccc(-c2cnn(CC3CCCO3)c2)cc1 (stereo not drawn) [Example 674, 1-(imidazo[1,2-a]pyridin-7-ylmethyl)-3-{4-[1-(tetrahydrofuran-2-ylmethyl)-1H-pyrazol-4-yl]phenyl}urea]
24 | 69.8 | 2.07 | 376 | O=C(NCc1ccn2ccnc2c1)Nc1ccc(-c2cnn(CC3CCOCC3)c2)cc1 [Example 675, 1-(imidazo[1,2-a]pyridin-7-ylmethyl)-3-{4-[1-(tetrahydro-2H-pyran-4-ylmethyl)-1H-pyrazol-4-yl]phenyl}urea]
25 | 5480 | 2.66 | 1110 | O=C(NCc1ccn2ccnc2c1)c1cnc(C2CCN(c3ccccc3)CC2)s1 [Example 688, N-(imidazo[1,2-a]pyridin-7-ylmethyl)-2-(1-phenylpiperidin-4-yl)-1,3-thiazole-5-carboxamide]
26 | 7.21 | 1.32 | 16 | O=C(NCc1ccn2ccnc2c1)Nc1ccc(O[C@@H]2CCN(C(=O)c3ccccc3F)C2)cc1 [Example 689, 1-(4-{[(3R)-1-(2-fluorobenzoyl)pyrrolidin-3-yl]oxy}phenyl)-3-(imidazo[1,2-a]pyridin-7-ylmethyl)urea]
27 | 13.8 | 1.22 | 64.3 | O=C(NCc1ccn2ccnc2c1)Nc1ccc(O[C@@H]2CCN(C(=O)c3cccc(F)c3)C2)cc1 [Example 690, 1-(4-{[(3R)-1-(3-fluorobenzoyl)pyrrolidin-3-yl]oxy}phenyl)-3-(imidazo[1,2-a]pyridin-7-ylmethyl)urea]
28 | 77.7 | 0.67 | 169 | O=C(NCc1ccn2ccnc2c1)Nc1ccc(O[C@@H]2CCN(C(=O)c3ccc(F)cc3)C2)cc1 [Example 691, 1-(4-{[(3R)-1-(4-fluorobenzoyl)pyrrolidin-3-yl]oxy}phenyl)-3-(imidazo[1,2-a]pyridin-7-ylmethyl)urea]
